Data reported in patent publication US20180333418A1, “USE OF PAN FGFR INHIBITORS AND METHOD OF IDENTIFYING PATIENTS WITH CANCER ELIGIBLE FOR TREATMENT WITH A PAN FGFR INHIBITOR” (BAYER PHARMA AKTIENGESELLSCHAFT, priority 2014, published 2018).

Legend:
[1] = tested on: LXFL1121 lung tumor model; experiment: LXFL1121 xenograft in vivo efficacy; parameters: species or system nu/nu mice; conditions: tumor weight reduction
Method: (§1) For all other tumors as listed in table 2 & 3 the experiments were carried out in an analogous way as described above.

[2] = tested on: OVXF1023 ovarian carcinoma; experiment: OVXF1023 patient-derived xenograft study; format: in vivo, nu/nu mice
Description: Female, 5-7 weeks old immunocompromised nu/nu mice (18-24 g) from Janvier (France) were used for the patient-derived OVX1023 ovarian carcinoma study.
The animals were housed in individually ventilated cages ([…] Sealsafe™-IVC-System, […], Hohenpeissenberg, Germany) and were kept under a 14L:10D artificial light cycle. The animals were monitored twice daily. Depending on group size, either type III cages or type II long cages were used. Dust-free bedding consisting of aspen wood chips with approximate dimensions of 5×5×1 mm (ABEDD®—LAB & VET Service GmbH, Vienna, Austria, Product Code: LTE E-001) were used. Additional nesting material was routinely added. […]
All experiments were approved by the local authorities, and were conducted according to all applicable international, national and local laws and guidelines. […] Animals were routinely monitored twice daily on working days and daily on weekends and public holidays. […]
Tumor size was measured twice weekly in two dimensions using a caliper, and the volume was expressed in mm^3 using the formula: V=0.5a×b^2 where a and b are the long and short diameters of the tumor, respectively. […] T-C was calculated with T as the time (in days) required for the mean tumor size of the treatment group to reach a predetermined size (e.g. 1000 mm^3), and C was the time (in days) for the mean tumor size of the control group to reach the same size. […]

[3] = tested on: H1703 lung tumor model; experiment: H1703 xenograft in vivo efficacy; parameters: species or system nu/nu mice; conditions: tumor weight reduction
Method: as §1

[4] = tested on: HN366 head&neck tumor model; experiment: HN366 xenograft in vivo efficacy; parameters: species or system nu/nu mice; conditions: tumor weight reduction
Method: as §1

COCc1c(-c2cc3cc(C)cc(OC)c3s2)c2c(N)ncnn2c1CN1CCNC(=O)C1 [compound of formula (I)]
in vivo efficacy [1]: yes (All models in which the tumor weight was reduced upon treatment with compounds of formula (I) by at least 50% were considered to be efficacious in vivo.)
T/C at day 38 post treatment start ([2]; OVXF1023, 35 mg/kg 2QD 5 days on- 2 days off po, treated mean/vehicle mean tumor volume): 0.2
in vivo efficacy ([2]; OVXF1023 ovarian model, tumor weight reduction): yes (All models in which the tumor weight was reduced upon treatment with compounds of formula (I) by at least 50% were considered to be efficacious in vivo.)
in vivo efficacy [3]: no (All models in which the tumor weight was reduced upon treatment with compounds of formula (I) by at least 50% were considered to be efficacious in vivo.)
in vivo efficacy [4]: yes (All models in which the tumor weight was reduced upon treatment with compounds of formula (I) by at least 50% were considered to be efficacious in vivo.)
